Results from patent US6737383B1, “Herbicidal oxadiazolidines” (priority 1999, dated 2004).

Legend:
bedstraw = assay: Test B pre/postemergence bedstraw; format: in vivo, Galium aparine
In short: (§1)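 Herbicidal effect was estimated by eye on a ten-point control scale after plants spent twelve to sixteen days in a greenhouse following soil or foliar treatment. Foliar sprays targeted plants at one to four leaves; all doses were formulated in a non-phytotoxic solvent with surfactant.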

blackgrass = assay: Test B pre/postemergence blackgrass; format: in vivo, Alopecurus myosuroides
In short: as §1

surinam grass = assay: Test B pre/postemergence surinam grass; format: in vivo, Brachiaria decumbens
In short: as §1

cocklebur = assay: Test B pre/postemergence cocklebur; format: in vivo, Xanthium strumarium
In short: as §1

corn = assay: Test B pre/postemergence corn; format: in vivo, Zea mays
In short: as §1

crabgrass = assay: Test B pre/postemergence crabgrass; format: in vivo, Digitaria sanguinalis
In short: as §1

giant foxtail = assay: Test B pre/postemergence giant foxtail; format: in vivo, Setaria faberii
In short: as §1

morningglory = assay: Test B pre/postemergence morningglory; format: in vivo, Ipomoea hederacea
In short: as §1

pigweed = assay: Test B pre/postemergence pigweed; format: in vivo, Amaranthus retroflexus
In short: as §1

rape = assay: Test B pre/postemergence rape; format: in vivo, Brassica napus
In short: as §1

soybean = assay: Test B pre/postemergence soybean; format: in vivo, Glycine max
In short: as §1

sugar beet = assay: Test B pre/postemergence sugar beet; format: in vivo, Beta vulgaris
In short: as §1

velvetleaf = assay: Test B pre/postemergence velvetleaf; format: in vivo, Abutilon theophrasti
In short: as §1

wheat = assay: Test B pre/postemergence wheat; format: in vivo, Triticum aestivum
In short: as §1

wild oat = assay: Test B pre/postemergence wild oat; format: in vivo, Avena fatua
In short: as §1

purple nutsedge = assay: Test B pre/postemergence purple nutsedge; format: in vivo, Cyperus rotundus
In short: as §1

[1] = Postemergence, Rate 125 g/ha, scale of 0 to 10 where 0 is no effect and 10 is complete control
[2] = Preemergence, Rate 62 g/ha, scale of 0 to 10 where 0 is no effect and 10 is complete control
[3] = Preemergence, Rate 125 g/ha, 0 is no effect, 10 is complete control
[4] = Preemergence, Rate 250 g/ha, scale 0 to 10, 0 is no effect, 10 is complete control
[5] = Preemergence, Rate 500 g/ha, scale 0 to 10 (0 no effect, 10 complete control)
[6] = Rate 62 g/ha, Postemergence, scale of 0 to 10 where 0 is no effect and 10 is complete control
[7] = Rate 250 g/ha, Postemergence, scale 0 to 10, 0 is no effect, 10 is complete control
[8] = Rate 500 g/ha, Postemergence, scale 0 to 10

## CC(C)N(C(=O)n1oc(=O)n([C@@H](C)c2ccccc2)c1=O)c1ccccc1 [Compound 168]
bedstraw; [1]
  Bedstraw plant response rating: 3
bedstraw; [2]
  Bedstraw plant response rating: 0
bedstraw; [3]
  Bedstraw plant response rating (0 to 10 scale): 0
bedstraw; [4]
  Bedstraw plant response rating: 0
bedstraw; [5]
  Bedstraw plant response rating: 0
bedstraw; [6]
  Bedstraw plant response rating: 3
bedstraw; [7]
  Plant response rating, Bedstraw: 8
blackgrass; [1]
  Blackgrass plant response rating: 0
blackgrass; [2]
  Blackgrass plant response rating: 0
blackgrass; [3]
  Blackgrass plant response rating (0 to 10 scale): 1
blackgrass; [4]
  Blackgrass plant response rating: 2
blackgrass; [5]
  Blackgrass plant response rating: 2
blackgrass; [6]
  Blackgrass plant response rating: 0
blackgrass; [7]
  Plant response rating, Blackgrass: 2
blackgrass; [8]
  Blackgrass plant response rating: 7
Surinam grass; [1]
  B. signalgrass plant response rating: 0
Surinam grass; [2]
  B. signalgrass plant response rating: 0
Surinam grass; [3]
  B. signalgrass plant response rating (0 to 10 scale): 2
Surinam grass; [4]
  B. signalgrass plant response rating: 2
Surinam grass; [5]
  B. signalgrass plant response rating: 5
Surinam grass; [6]
  B. signalgrass plant response rating: 0
Surinam grass; [7]
  Plant response rating, B. signalgrass: 0
Surinam grass; Rate 500 g/ha, Postemergence, scale 0 to 10, 0 no effect, 10 complete control
  B. signalgrass plant response rating: 0
cocklebur; [1]
  Cocklebur plant response rating: 0
cocklebur; [2]
  Cocklebur plant response rating: 0
cocklebur; [3]
  Cocklebur plant response rating (0 to 10 scale): 0
cocklebur; [4]
  Cocklebur plant response rating: 0
cocklebur; [5]
  Cocklebur plant response rating: 0
cocklebur; [6]
  Cocklebur plant response rating: 0
cocklebur; [7]
  Plant response rating, Cocklebur: 2
cocklebur; [8]
  Cocklebur plant response rating: 2
corn; [1]
  Corn plant response rating: 0
corn; [2]
  Corn plant response rating: 0
corn; [3]
  Corn plant response rating (0 to 10 scale): 0
corn; [4]
  Corn plant response rating: 0
corn; [5]
  Corn plant response rating: 0
corn; [6]
  Corn plant response rating: 0
corn; [7]
  Plant response rating, Corn: 0
corn; [8]
  Corn plant response rating: 0
crabgrass; [1]
  Crabgrass plant response rating: 1
crabgrass; [2]
  Crabgrass plant response rating: 0
crabgrass; [3]
  Crabgrass plant response rating (0 to 10 scale): 3
crabgrass; [4]
  Crabgrass plant response rating: 7
crabgrass; [5]
  Crabgrass plant response rating: 7
crabgrass; [6]
  Crabgrass plant response rating: 0
crabgrass; [7]
  Plant response rating, Crabgrass: 2
crabgrass; [8]
  Crabgrass plant response rating: 9
Giant foxtail; [1]
  Giant foxtail plant response rating: 0
Giant foxtail; [2]
  Giant foxtail plant response rating: 6
Giant foxtail; [3]
  Giant foxtail plant response rating (0 to 10 scale): 8
Giant foxtail; [4]
  Giant foxtail plant response rating: 10
Giant foxtail; [5]
  Giant foxtail plant response rating: 10
Giant foxtail; [6]
  Giant foxtail plant response rating: 0
Giant foxtail; [7]
  Plant response rating, Giant foxtail: 1
Giant foxtail; [8]
  Giant foxtail plant response rating: 3
morningglory; [1]
  Morningglory plant response rating: 8
morningglory; [2]
  Morningglory plant response rating: 0
morningglory; [3]
  Morningglory plant response rating (0 to 10 scale): 0
morningglory; [4]
  Morningglory plant response rating: 0
morningglory; [5]
  Morningglory plant response rating: 0
morningglory; [6]
  Morningglory plant response rating: 7
morningglory; [7]
  Plant response rating, Morningglory: 10
morningglory; [8]
  Morningglory plant response rating: 10
pigweed; [1]
  Redroot pigweed plant response rating: 0
pigweed; [2]
  Redroot pigweed plant response rating: 0
pigweed; [3]
  Redroot pigweed plant response rating (0 to 10 scale): 0
pigweed; [4]
  Redroot pigweed plant response rating: 0
pigweed; [5]
  Redroot pigweed plant response rating: 0
pigweed; [6]
  Redroot pigweed plant response rating: 0
pigweed; [7]
  Plant response rating, Redroot pigweed: 0
pigweed; [8]
  Redroot pigweed plant response rating: 0
rape; [1]
  Rape plant response rating: 0
rape; [2]
  Rape plant response rating: 0
rape; [3]
  Rape plant response rating (0 to 10 scale): 0
rape; [4]
  Rape plant response rating: 0
rape; [5]
  Rape plant response rating: 0
rape; [6]
  Rape plant response rating: 0
rape; [7]
  Plant response rating, Rape: 0
rape; [8]
  Rape plant response rating: 0
soybean; [1]
  Soybean plant response rating: 1
soybean; [2]
  Soybean plant response rating: 0
soybean; [3]
  Soybean plant response rating (0 to 10 scale): 0
soybean; [4]
  Soybean plant response rating: 0
soybean; [5]
  Soybean plant response rating: 0
soybean; [6]
  Soybean plant response rating: 1
soybean; [7]
  Plant response rating, Soybean: 2
soybean; [8]
  Soybean plant response rating: 2
Sugar beet; [1]
  Sugarbeets plant response rating: 0
Sugar beet; [2]
  Sugarbeets plant response rating: 0
Sugar beet; [3]
  Sugarbeets plant response rating (0 to 10 scale): 0
Sugar beet; [4]
  Sugarbeets plant response rating: 4
Sugar beet; [5]
  Sugarbeets plant response rating: 7
Sugar beet; [6]
  Sugarbeets plant response rating: 0
Sugar beet; [7]
  Plant response rating, Sugarbeets: 0
Sugar beet; [8]
  Sugarbeets plant response rating: 0
velvetleaf; [2]
  Velvetleaf plant response rating: 0
velvetleaf; [3]
  Velvetleaf plant response rating (0 to 10 scale): 0
velvetleaf; [4]
  Velvetleaf plant response rating: 0
velvetleaf; [5]
  Velvetleaf plant response rating: 6
velvetleaf; [7]
  Plant response rating, Velvetleaf: 1
velvetleaf; [8]
  Velvetleaf plant response rating: 1
wheat; [2]
  Wheat plant response rating: 0
wheat; [3]
  Wheat plant response rating (0 to 10 scale): 0
wheat; [4]
  Wheat plant response rating: 0
wheat; [5]
  Wheat plant response rating: 0
wheat; [7]
  Plant response rating, Wheat: 0
wheat; [8]
  Wheat plant response rating: 0
Wild oat; [2]
  Wild oats plant response rating: 0
Wild oat; [3]
  Wild oats plant response rating (0 to 10 scale): 0
Wild oat; [4]
  Wild oats plant response rating: 1
Wild oat; [5]
  Wild oats plant response rating: 3
Wild oat; [7]
  Plant response rating, Wild oats: 0
Wild oat; [8]
  Wild oats plant response rating: 0
Purple nutsedge; [1]
  Nutsedge plant response rating: 0
Purple nutsedge; [2]
  Nutsedge plant response rating: 0
Purple nutsedge; [3]
  Nutsedge plant response rating (0 to 10 scale): 0
Purple nutsedge; [4]
  Nutsedge plant response rating: 0
Purple nutsedge; [5]
  Nutsedge plant response rating: 0
Purple nutsedge; [6]
  Nutsedge plant response rating: 0
Purple nutsedge; [7]
  Plant response rating, Nutsedge: 0
Purple nutsedge; [8]
  Nutsedge plant response rating: 0
